Read-outs that look alike come from different tables or passages of the source.
Columns and labels:
THP-1 macrophages = experiment: CellTiter-Glo viability assay in THP-1 macrophages; assay type: cell-based, human
Method: For generating macrophages differentiation was induced by 10^-8 M Phorbol 12-myristate 13-acetate (PMA) (Sigma-Aldrich) for 48 h. Ligand treatment of macrophages was performed for further 24 h. To induce foam cell formation macrophages were treated for additional 48 h with 100 µg/mL modified human oxidized low density lipoprotein (oxLDL) obtained from Source BioScience (RP-048). Ligand treatment was performed simultaneously with foam cell formation. Cholesterol loading and treatment was controlled with Oil Red O staining (Alfa Aeser). To investigate ligand induced effects on cell proliferation of THP-1 macrophages CellTiter-Glo Luminescent Cell Viability Assay (Promega) was utilized.

foam cells [1] = experiment: triglyceride content in foam cells (Triglyceride Assay Kit); assay type: cell-based, human; conditions: 10 µM, 48 h
Method: (§1) THP-1 monocytes were plated out into 24-well plates (Nunc) at a density of 2 x 10^5 cells/well. After differentiation and treatment cells were lysed with 100 µL lysis buffer (PBS, 0.25 M NaCl, 1% Triton X-100). Total and free cholesterol were determined using the colorimetric enzymatic Amplex Red Cholesterol Assay Kit (Invitrogen). Triglycerides were quantified by Triglyceride Assay Kit (BioVision). For normalisation protein content was determined with Pierce 660 nm Protein Assay Reagent (Thermo Scientific).

macrophages = experiment: triglyceride content in macrophages (Triglyceride Assay Kit); assay type: cell-based, human; conditions: 10 µM, 48 h
Method: as §1

[2] = target: T1, LXRα ligand binding domain (LBD) (Homo sapiens, UniProt Q13133); experiment: dual luciferase reporter gene assay with LXRα ligand binding domain in HEK-293 cells; assay type: cell-based
T1 construct: expressed in transfected cells; host or cells: HEK-293
T1 sequence (Q13133 164-447): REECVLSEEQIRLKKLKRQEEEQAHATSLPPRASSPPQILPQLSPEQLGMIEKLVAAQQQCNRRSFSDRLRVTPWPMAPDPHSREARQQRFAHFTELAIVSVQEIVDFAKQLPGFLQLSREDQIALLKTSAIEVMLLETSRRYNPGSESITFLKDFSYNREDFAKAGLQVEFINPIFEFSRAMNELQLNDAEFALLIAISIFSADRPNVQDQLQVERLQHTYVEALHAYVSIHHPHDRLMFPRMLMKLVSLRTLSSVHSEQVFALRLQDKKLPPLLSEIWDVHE
Method: (§2) The ligand binding domain (LBD) of LXRα (amino acids 164 to 447) or LXRβ (amino acids 154 to 461) was cloned into pBIND [Renilla/Amp] vector (Promega). Selection and amplification were performed in E-coli cells. Purification of the plasmids was performed with a plasmid purification kit (Qiagen). For transfection HEK-293 cells were plated in 96-well plates (TPP) at a density of 3.5 x 10^4 cells/well for 24 h. To investigate the ligand binding on LXRα ligand binding domain, 0.04 ng of renilla luciferase coding plasmide pGL4.75 (Promega), 0.04 ng of LXRα-LBD/GAL4-DBD plasmide and 80 ng of firefly luciferase coding plasmide pGL4.31 (Promega) were used in a total volume of 200 µL for each well. In LXRβ binding assay 40 ng of LXRβ-LBD/GAL4-DBD plasmide were applied in each transfection mix. Transfection was carried out for 4 h with Lipofectamine 2000 Transfection Reagent (Invitrogen) in Opti-MEM medium (Invitrogen). Ligand treatment was performed at different concentrations for 24 h. For lysis and detection dual-luciferase reporter gene assay system (Promega) and POLARstar Omega (BMG LABTECH) were used.

foam cells [3] = experiment: microarray genome-wide gene expression and GSEA in foam cells; assay type: cell-based, human; conditions: 10 µM
Method: Microarray analyses were performed according to instructions of Illumina's TotalPrep RNA Amplification Kit followed by hybridisation on HumanHT-12 v3 or HumanHT-12 v4 Expression BeadChips (illumina). Data analysis was performed with GenomeStudio […].1 (illumina). Differential expression analysis was performed on background-subtracted data with cubic spline normalization and Benjamini-Hochberg FDR correction. […] Gene expression data were submitted in MIAME-compliant form to the NCBI Gene Expression Omnibus database (GSE39079). Bead array data were validated by quantitative real-time PCR. The Gene Distance Matrix was conducted in Euclidean space using the MeV 4.3 software tool [[…]. et al. Biotechniques (2003), 34, 374-378]. Gene Set Enrichment Analysis (GSEA) was performed as described elsewhere [Subramanian A. et al. Proc. Natl. Acad. Sci. […] Enrichment of pathways was tested using the Reactome (v3.0) and the KEGG (v3.0) database from the Molecular Signature Database (MSigDB). Heatmaps were carried out with […]. et al. BMC Bioinformatics (2012), 11, 121]. For presentation of treatment effects in the heatmap, the pathway normalized enrichment score (NES) was adjusted with the appropriate FDR as follows: adjustedNES = (1-FDR) x NES.

[4] = target: T2, LXRβ ligand binding domain (LBD) (Homo sapiens, UniProt P55055); experiment: dual luciferase reporter gene assay with LXRβ ligand binding domain in HEK-293 cells; assay type: cell-based
T2 construct: expressed in transfected cells; host or cells: HEK-293
T2 sequence (P55055 154-460 limits assumed): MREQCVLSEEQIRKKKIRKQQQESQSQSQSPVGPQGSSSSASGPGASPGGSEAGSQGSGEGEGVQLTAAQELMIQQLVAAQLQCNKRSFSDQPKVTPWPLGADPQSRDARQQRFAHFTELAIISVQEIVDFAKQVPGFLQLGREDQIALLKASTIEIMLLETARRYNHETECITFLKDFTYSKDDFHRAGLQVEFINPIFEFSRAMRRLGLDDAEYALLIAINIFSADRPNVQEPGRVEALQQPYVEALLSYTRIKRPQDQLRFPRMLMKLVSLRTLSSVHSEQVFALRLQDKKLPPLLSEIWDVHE
Method: as §2, with “Selection” for “The ligand binding domain (LBD) of LXRα (amino acids 164 to 447) or LXRβ (amino acids 154 to 461) was cloned into pBIND [Renilla/Amp] vector (Promega). Selection”

With `C(=C\c1ccc(OCC2CO2)cc1)/c1ccccc1` (stereo not shown) [compound 1, 2-[[4-[(E)-styryl]phenoxy]-methyl]oxirane] as the compound, how does the “no cytotoxic effects / no reduction of cellular viability up to” value (THP-1 macrophages) read?
The value was “up to 50 µM”.

And the “no cytotoxic effects / no reduction of cellular viability up to” value (THP-1 macrophages; listed as Compound 1)?
The value was “up to 25 µM”.

And the triglyceride levels (foam cells [1])?
The triglyceride levels was “triglyceride levels were not increased”.

What about the triglyceride level (macrophages) of the same compound?
The triglyceride level was “stayed unchanged”.

What about the EC50 ([2]; +DMSO, LXRα reporter gene activation) of the same compound?
The EC50 was 35 nM.

And the Efficacy ([2]; +DMSO, reporter gene transcription vs. T09)?
Its Efficacy is 6%.

And the “specificity LXRα vs. LXRβ” value ([2]; reporter-gene assays with LXRα and LXRβ LBD)?
The value was “characteristic specificity for LXRα”.

And the “Lipid metabolism processes (gene set enrichment)” value (foam cells [3])?
Its value is “comparably up-regulated”.

What about the “triacylglyceride biosynthesis (transcriptional regulation)” value (foam cells [3]) of the same compound?
The value was “not regulated”.

And the “Transcriptional activation of LXRβ” value [4]?
Its value is “does not activate the LXRβ subtype”.
